Here are results for one compound from publication PMC5775280, “Functional Characterization and Signaling Systems of Corazonin and Red Pigment Concentrating Hormone in the Green Shore Crab, Carcinus maenas” (Frontiers in Neuroscience, 2018).

The structures appear in SMILES notation. Peptide text beside a SMILES is read from it.

The nature of assay [1]: Hemolymph glucose levels after peptide injection. The format is in vivo, Carcinus maenas. Particulars: injection 100 pmol, n = 8. As to the method:
(§1) Adipokinetic and glucose mobilizing activity of […] and ACP were performed by measurement of triglycerides in hemolymph ([…] et al., [2014]) and glucose (Chung and Webster, [1996]). Hemolymph samples (ca. 100 μl) were taken from crabs injected with each peptide at 0 and 90 min, and subsequently assayed.

Assay [2] can be described thus: Hemolymph triglyceride levels after peptide injection. In kind it is in vivo, Carcinus maenas. Particulars: mean ± 1 SEM, n = 6, SEM. On the procedure:
as §1

The target in assay [3] is T1, C. maenas RPCHR (red pigment concentrating hormone receptor) (Carcinus maenas, UniProt A0A2L0WQF2).
T1 sequence (A0A2L0WQF2 1-529): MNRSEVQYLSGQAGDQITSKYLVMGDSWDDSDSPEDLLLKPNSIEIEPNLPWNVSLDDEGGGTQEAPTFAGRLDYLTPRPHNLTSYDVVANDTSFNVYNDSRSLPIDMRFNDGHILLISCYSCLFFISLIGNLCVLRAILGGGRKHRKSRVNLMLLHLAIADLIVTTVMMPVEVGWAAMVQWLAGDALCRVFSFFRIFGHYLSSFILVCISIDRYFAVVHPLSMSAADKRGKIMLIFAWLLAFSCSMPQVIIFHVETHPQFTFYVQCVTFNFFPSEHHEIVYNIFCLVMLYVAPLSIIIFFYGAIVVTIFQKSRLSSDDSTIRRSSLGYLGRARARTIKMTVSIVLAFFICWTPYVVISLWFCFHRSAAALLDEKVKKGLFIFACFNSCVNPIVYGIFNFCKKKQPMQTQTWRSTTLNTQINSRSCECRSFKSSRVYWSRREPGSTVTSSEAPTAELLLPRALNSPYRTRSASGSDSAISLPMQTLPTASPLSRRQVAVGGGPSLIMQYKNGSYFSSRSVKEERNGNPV
The experiment in a line: Aequorin luminescence Ca2+ mobilization in CHO-K1-Aeq cells transiently expressing RPCHR. Particulars: CHO-K1-Aeq cells (without Gα16) transiently expressing RPCHR; luminescence response normalized to total Ca2+ response; dose response curves, means of n = 4. The format is cell-based. On the procedure:
Chinese hamster ovary (CHO-K1) cells containing stably expressed apoaequorin (Perkin Elmer, Boston, MA) and either Gα16 or Gq subunit (control cells) were cultured in Dulbecco's Modified Eagle Medium (DMEM) F-12 Nutrient Mixture GlutaMax (Gibco®) supplemented with 10% fetal bovine serum (Gibco®). Cells were maintained in vented T75 flasks at 37°C in 5% CO2.
Cells grown in a monolayer to approximately 60% confluency in T75 flasks were transfected with pcDNA3.1 constructs using FugeneHD (Promega) according to the manufacturer's recommendations. Briefly, transfection medium was prepared by combining 800 μl Opti-MEM® (Gibco) with 10 μg vector and 30 μl Fugene HD in a 2 ml polystyrene tube and incubated for 10 min at room temperature. The transfection reagent was added to 5 ml of fresh culture media and the cells incubated overnight at 37°C in 5% CO2. After 24 h, an additional 10 ml of culture media were added to the flasks and the cells returned to 37°C at 5% CO2 for a further overnight incubation.
On the day of the assay, cells were detached from the culture flask by incubating for 12 min in 5 ml 0.2% EDTA in PBS. The cells were washed with 10 ml DMEM clear DMEM/F-12 containing L-glutamine, 15 mM HEPES and moved to 50 ml centrifuge tubes. Cells were centrifuged for 5 min at 260 g and resuspended to a concentration of 5 × 10^6 cells ml^−1 in 0.2 μm filtered BSA medium (DMEM/F-12 containing L-glutamine, 15 mM HEPES + 0.1% BSA). Coelenterazine h (Invitrogen, Paisley, UK) was added to a concentration of 5 μM and the cells incubated for 4 h in the dark at room temperature whilst gently rocking. The cells were diluted 10-fold and incubated for a further 60 min before use in the assay. Synthetic peptides (GeneCust, Dudelange, Luxembourg) were reconstituted in 30% acetonitrile, dried in small aliquots by vacuum centrifugation and subsequently redissolved in BSA medium. Fifty microliter aliquots were then dispensed into quadruplicate wells of a white 96-well plate (OptiPlate, PerkinElmer). Cell suspensions were gently stirred and injected in 50 μl aliquots into each well using a Mithras LB 940 microplate reader (Berthold Technologies, Bad-Wildbad, Germany) and light emission (Ca^2+ response) recorded for 30 s. Cells were then lysed by injection of 0.3% Triton-X in BSA medium and light emission recorded for a further 10 s to measure total Ca^2+ response. BSA medium was used for blank measurements (6 replicate wells per plate) and mock transfection with empty vectors carried out for negative controls. Data was analyzed using MikroWin v5.18 (Mikrotek Laborsysteme GmbH) and SigmaPlot v.13 (Systat Software, Inc.). Receptor response was normalized against total Ca^2+ response.

The subject of assay [4] is red and black epidermal chromatophores, dactyl of the 5th walking leg. The experiment in a line: Chromatophore pigment migration bioassay in vivo. Conditions: injection after 40 min dispersion with 5 pmol PDH, 0.1–100 pmol/crab for RPCH or AKH, 100 pmol/crab for CRZ or ACP, scored 5 and 20 min after injection. Also noted: species or system Carcinus maenas. As to the method:
Pigmentary effector activity of […], Locusta migratoria AKH-I, and ACP were measured in vivo, using small (15-20 mm carapace width) C. maenas. Crabs were firstly adapted to a white background, light intensity 300 lx for 1 h. Pigment dispersion of red and black chromatophores in the […] of the 5th walking leg were microscopically observed and indices of dispersion scored according to Hogben and Slome ([1931]). Red and black chromatophores were firstly fully dispersed by injection of 5 pmol C. maenas pigment dispersing hormone ([…]) in 10 μl saline into the hypobranchial sinus, using hand-drawn glass microcapillaries. Chromatophore dispersion indices were scored at 0, 20, 40 min. Peptides were then injected and chromatophores subsequently scored after 5 and 20 min.

Assay [5] can be described thus: Hemolymph triglyceride levels after peptide injection. The format is in vivo, Carcinus maenas. Particulars: lipid mobilization bioassay.

The term EC50 denotes the concentration at which the effect is half-maximal. A high value points to lower potency in that assay.

Turning to `CC(C)C[C@H](NC(=O)[C@@H]1CCC(=O)N1)C(=O)N[C@@H](CC(N)=O)C(=O)N[C@@H](Cc1ccccc1)C(=O)N[C@@H](CO)C(=O)N1CCC[C@H]1C(=O)NCC(=O)N[C@@H](Cc1c[nH]c2ccccc12)C(N)=O` [RPCH] (HELM PEPTIDE1{[Glp].L.N.F.S.P.G.W.[am]}$$$$V2.0), the “effect of eyestalk removal on the glucose response” value in assay [1] (eyestalk removal, 90 min) is given as “completely abolished this response”. Further, in assay [1] (within 90 min, Student's matched pair t-test P < 0.01), the “effect on circulating glucose levels, intact crabs” value is listed as “significantly raised circulating glucose levels”. For the same compound, the “hemolymph triglyceride levels, 0 min” value in assay [2] (injection 100 pmol per crab) is 0.14 ± 0.14 µg/µL; in assay [2] (repeat experiment, injection 10 pmol) it was 0.49 ± 0.27 µg/µL; in assay [2] (repeat experiment, injection 100 pmol), 1.65 ± 0.59 µg/µL. Besides, the “hemolymph triglyceride levels, 90 min” value in assay [2] (injection 100 pmol per crab, no significant change over 90 min) was 0.86 ± 0.4 µg/µL; in assay [2] (repeat experiment, injection 10 pmol, no significant change), 0.20 ± 0.28 µg/µL; in assay [2] (repeat experiment, injection 100 pmol, no significant change) it was 0.78 ± 0.44 µg/µL. In assay [3], a half-maximal response (EC50) required 20 pM. The “pigment migration (concentration) in red and black epidermal chromatophores” value in assay [4] is on record as “dose-dependent concentration of pigment in the red (but not the black) chromatophores”. Moreover, the “effect on hemolymph diacylglycerol levels” value in assay [5] was “completely without effect”.
